Each structure is given as a SMILES string. Values after ≈ are worked out from the molar mass of the structure shown.

The results in this text go back to patent publication US20050267158A1, “Polymorphic and amorphous forms of 2,5-dimethyl-2H-pyrazole-3-carboxylic acid {2-fluoro-5-[3-((E)-2 pyridin-2-YL-vinyl)-1H-indazol-6-ylamino]-phenyl}-amide” (AGOURON PHARMACEUTICALS, INC., priority 2004, published 2005).

Common to all, as to type: physicochemical
Data set [1] is described as follows: Light stability under ICH high intensity light conditions. From the text: (§1) The present invention provides several polymorph crystalline forms and an amorphous form of the compound of Formula I. Each crystalline or amorphous form of the compound can be characterized by one or more of the following: X-ray powder diffraction pattern (i.e., X-ray diffraction peaks at various diffraction angles (2θ)), melting point onset (and onset of dehydration for hydrated forms) as illustrated by endotherms of a Differential Scanning Calorimetry (DSC) thermogram, Raman spectral diagram pattern, aqueous solubility, light stability under International Conference on Harmonization (ICH) high intensity light conditions, and physical and chemical storage stability.

A short description of data set [2]: Hygroscopicity / form conversion under ambient humidity. The conditions noted are these: for conversion of solid form: ambient humidity.
The nature of the next data set: Aqueous solubility. The note with it: for solubility: thermodynamic from solid.
From the text: as §1

Data set [3] can be described thus: Physical and chemical storage stability.
From the text: as §1

The mark [4] stands for this setting: aqueous medium, pH 2, pH 2, aqueous buffer, pH 2.

As for `Cc1cc(C(=O)Nc2cc(Nc3ccc4c(/C=C/c5ccccn5)n[nH]c4c3)ccc2F)n(C)n1` [Form Ia, 2,5-Dimethyl-2H-pyrazole-3-carboxylic acid {2-fluoro-5-[3-((E)-2-pyridin-2-yl-vinyl)-1H-indazol-6-ylamino]-phenyl}-amide], in data set [1], the light stability entry was “light-stable”.
`Cc1cc(C(=O)Nc2cc(Nc3ccc4c(/C=C/c5ccccn5)n[nH]c4c3)ccc2F)n(C)n1` [Form Ibm-2, 2,5-Dimethyl-2H-pyrazole-3-carboxylic acid {2-fluoro-5-[3-((E)-2-pyridin-2-yl-vinyl)-1H-indazol-6-ylamino]-phenyl}-amide]: in data set [2], the “conversion of solid form” value is given as “will convert to Form Ib upon complete hydration”.
In the case of `Cc1cc(C(=O)Nc2cc(Nc3ccc4c(/C=C/c5ccccn5)n[nH]c4c3)ccc2F)n(C)n1` [Form IV, 2,5-Dimethyl-2H-pyrazole-3-carboxylic acid {2-fluoro-5-[3-((E)-2-pyridin-2-yl-vinyl)-1H-indazol-6-ylamino]-phenyl}-amide], the light stability result in data set [1] is reported as “light-stable”. Besides, in “Aqueous solubility” (setting [4]), the solubility was roughly 7 µg/mL (≈ 15 µM).
With `Cc1cc(C(=O)Nc2cc(Nc3ccc4c(/C=C/c5ccccn5)n[nH]c4c3)ccc2F)n(C)n1` [Form III, 2,5-Dimethyl-2H-pyrazole-3-carboxylic acid {2-fluoro-5-[3-((E)-2-pyridin-2-yl-vinyl)-1H-indazol-6-ylamino]-phenyl}-amide], in data set [1], the light stability entry is on record as “light-stable”. The aqueous solubility result in the data set “Aqueous solubility” (pH 2) is listed as “about 10 μg/mL”; in “Aqueous solubility” (pH 7.4), “about 0.6 μg/mL”.
For the compound `Cc1cc(C(=O)Nc2cc(Nc3ccc4c(/C=C/c5ccccn5)n[nH]c4c3)ccc2F)n(C)n1` [Form VI, 2,5-Dimethyl-2H-pyrazole-3-carboxylic acid {2-fluoro-5-[3-((E)-2-pyridin-2-yl-vinyl)-1H-indazol-6-ylamino]-phenyl}-amide], in data set [2], the hygroscopicity entry is recorded as “very hygroscopic” and the “conversion of solid form” value is listed as “readily converted back to Form Ib”.
With `Cc1cc(C(=O)Nc2cc(Nc3ccc4c(/C=C/c5ccccn5)n[nH]c4c3)ccc2F)n(C)n1` [Form Ib, 2,5-Dimethyl-2H-pyrazole-3-carboxylic acid {2-fluoro-5-[3-((E)-2-pyridin-2-yl-vinyl)-1H-indazol-6-ylamino]-phenyl}-amide], the “physical and chemical stability” value in data set [3] (60° C. and 40° C./75% RH) is “physically and chemically stable for at least three months”.
As to `Cc1cc(C(=O)Nc2cc(Nc3ccc4c(/C=C/c5ccccn5)n[nH]c4c3)ccc2F)n(C)n1` [Form II, 2,5-Dimethyl-2H-pyrazole-3-carboxylic acid {2-fluoro-5-[3-((E)-2-pyridin-2-yl-vinyl)-1H-indazol-6-ylamino]-phenyl}-amide], the light stability result in data set [1] is on record as “light-stable”. Further, the solubility in the data set “Aqueous solubility” (aqueous medium at pH 2, pH 2, aqueous buffer, pH 2) is roughly 19 µg/mL (≈ 40.6 µM); in the data set “Aqueous solubility” (aqueous medium at pH 7.4, pH 7.4, aqueous buffer, pH 7.4), roughly 0.7 µg/mL (≈ 1.5 µM).
In the case of `Cc1cc(C(=O)Nc2cc(Nc3ccc4c(/C=C/c5ccccn5)n[nH]c4c3)ccc2F)n(C)n1` [Form I, 2,5-Dimethyl-2H-pyrazole-3-carboxylic acid {2-fluoro-5-[3-((E)-2-pyridin-2-yl-vinyl)-1H-indazol-6-ylamino]-phenyl}-amide], the light stability entry in data set [1] is reported as “light-stable”. The solubility in “Aqueous solubility” (aqueous medium (pH 7.4), pH 7.4, aqueous buffer, pH 7.4) is roughly 0.4 µg/mL (≈ 0.856 µM); in “Aqueous solubility” (setting [4]), roughly 39 µg/mL (≈ 83.4 µM). Moreover, the time chemically stable in data set [3] (80° C. and 40° C./75% RH) is reported as “at least 14 days”.
Consider `Cc1cc(C(=O)Nc2cc(Nc3ccc4c(/C=C/c5ccccn5)n[nH]c4c3)ccc2F)n(C)n1` [Form V, 2,5-Dimethyl-2H-pyrazole-3-carboxylic acid {2-fluoro-5-[3-((E)-2-pyridin-2-yl-vinyl)-1H-indazol-6-ylamino]-phenyl}-amide], for which, in data set [1], the light stability result is listed as “light-stable”. In the data set “Aqueous solubility” (aqueous medium, pH 2, aqueous buffer, pH 2), this compound gave a solubility of roughly 8 µg/mL (≈ 17.1 µM). Also, in the data set “Aqueous solubility” (pH 7.4), the aqueous solubility entry is on record as “about 0.2 μg/mL”.
